This is an account of results in patent US5025015A, “Thioformamidines, and use as medicaments” (Pierre Fabre Medicament, priority 1988, dated 1991).

One test relates to gastric secretion. Description: gastric secretion by ligature of the pylorus using Shay's technique, male Sprague-Dawley rats. The test is classed as in vivo. The following applies: rat, intraduodenal route, 50 mg/kg, acute. As to the method: 1. […] Acute treatment by intraduodenal route in a dose of 50 mg/kg.
Test [1] relates to ulcers with acetyl salicylic acid. Description: activity toward ulcers with acetyl salicylic acid quantified in accordance with the Pfeiffer scale, male rats. The following applies: orally, acute. The class given is in vivo.

Take `CNC(=NCCSCc1nc[nH]c1C)NC#N` [Cimetidine, N-Cyano-N'-methyl-N''-[2-[[(5-methyl-1H-imidazol-4-yl)methyl]thio]ethyl]guanidine, reference compound]: in the test with gastric secretion, the “% Variation: decrease of the volume secreted” value (from here on “% Variation: decrease”) turned out to be 47% and the “% Variation: increase of the intragastric pH” value (“% Variation: increase” below) amounted to 90%. Further, the “% Inhibition of the ulcer lesions” value in test [1] (dose 40 mg/kg) turned out to be 46%.
On the same counts, the results for `CN(C(=O)CSc1ncc[nH]1)c1ccc(Cl)cc1C(=O)c1ccccc1Cl` [Product 7] are 70%, 118% and 46%.
`CN(C(=O)CSC1=NCCN1)c1ccc(Cl)cc1Cc1ccccc1` [Product 12]: the “% Inhibition of the ulcer lesions” value in test [1] (dose 40 mg/kg) was 40%.
Take `CN(C(=O)CSc1ncc[nH]1)c1ccc(Cl)cc1C(=O)c1ccccc1` [Product 15]: in the test with gastric secretion, the “% Variation: decrease” value is 50% and the “% Variation: increase” value is on record as 181%. The “% Inhibition of the ulcer lesions” value in test [1] (dose 50 mg/kg) was found to be 35%.
Take `CN(C(=O)CSC(=N)N)c1ccc(Cl)cc1C(=O)c1ccccc1Cl` [Product 16]: in the test with gastric secretion, the “% Variation: decrease” value is listed as 79% and the “% Variation: increase” value is given as 153%. Besides, the “% Inhibition of the ulcer lesions” value in test [1] (dose 50 mg/kg) is 32%.
Turning to “N-methyl 2'-(orthochloro-α-hydroxybenzyl)-4'-chloro 2-[2-(Δ2-imidazolinyl)thio]acetanilide [Product 11]”, in the test on gastric secretion, the “% Variation: decrease” value is listed as 76% and the “% Variation: increase” value was found to be 267%.
As to “N-methyl 2-[2-(Δ2-imidazolinyl)thio]2'-benzoyl-4'-chloroacetanilide hydrochloride [Product 2]”, in the test with gastric secretion, the “% Variation: decrease” value is recorded as 76% and the “% Variation: increase” value worked out at 158%. In test [1] (dose 40 mg/kg), the “% Inhibition of the ulcer lesions” value came to 34%.
